From patent US20230285516A1 (priority 2020, published 2023)
“Also recorded” adds a separate entry of the source.

Assays:
IL-10 = IL-10 in co-culture supernatants (ELISA); format: cell-based, human; conditions: RA or OA co-cultures, day 7 vs. day 1 of culture
Method: Cartilage and synovium co-cultures were performed from 9 patients with RA and 8 patients with OA who underwent hip or knee replacement (Table 1). Joint tissue was cultured with (a) RPMI (control), (b) 1% type I polymerized collagen, for 7 days. The supernatants and tissues of days 1 and 7 were […] collected. In the culture supernatants the concentration of IL-1β, IL-8, IL-10, IL-12, TNF-α and IFN-γ was quantified by ELISA and the results were normalized with total protein concentration. The expression of IL-1β and TNF-α was evaluated using histochemistry.
FIG. 6. Effect of type I polymerized collagen on IL-10 expression in supernatants of cartilage and synovial tissue co-cultures from patients with rheumatoid arthritis (RA) or osteoarthritis (OA). The data represent the mean±SD of 9 co-cultures of cartilage and synovium from patients with RA and of 8 co-cultures of patients with OA. Each culture was performed in triplicate for each condition. The results were normalized with the total protein concentration of the supernatant, determined by the Folin-Lowry micromethod. AR: left panel. OA: panel on the right. Basal: tissue in basal conditions.

Foxp3 = Foxp3 gene expression in co-cultured tissues (RT-PCR); format: cell-based, human; conditions: vs control
Text: FIG. 7. Effect of type I polymerized collagen on the gene expression of pro- and anti-inflammatory cytokines and factors in the tissues of cartilage and synovial tissue co-cultures of patients with rheumatoid arthritis (RA). (A) Quantification of TNF-α, IL-6 and IL-10 gene expression and (B) Quantification of IL-23 and Foxp3 gene expression by RT-PCR in synovial membrane tissues and cartilage co-cultured for 7 days. The bars show the mean±SD of the transcript levels of the samples normalized through the expression of the housekeeping gene GADPH determined by 2ΔΔCt. The data represent the mean±SD of 9 cartilage and synovial co-cultures from RA patients. Each culture was performed in triplicate for each condition. Basal: tissue in basal conditions.
FIG. 8. Effect of type I polymerized collagen on the gene expression of pro- and anti-inflammatory cytokines and factors in the tissues of cartilage and synovial co-cultures of patients with Osteoarthritis (OA). (A) Quantification of IL-1β, INF-α, IL-6 and IL-10 gene expression, (B) IL-23 and Foxp3 by RT-PCR in co-cultured cartilage and synovial membrane tissues for 7 days. The bars show the mean±SD of the transcript levels of the samples normalized through the expression of the housekeeping gene GADPH determined by 2ΔΔCt. The data represent the mean±SD of 8 co-cultures from patients with OA. […]

dormant cells = conditions: Jou I-M 2005; Furuzawa-Carballeda 2003; cited from earlier work
mice with CIA = test: Histopathological analysis of hind legs, collagen-induced arthritis (CIA) models; format: in vivo; conditions: H&E and PAS, intramuscular weekly for 6 weeks
Method: Early Arthritis Model. Fifty mice with the same characteristics were immunized at the base of the tail with 100 μg of chicken type II collagen emulsified in complete Freund's adjuvant. The boost was applied on day 21 at the base of the tail with 100 μg of type II collagen emulsified with Freund's incomplete adjuvant. On the same boosting day, the treatments (a-d) were applied every week for six weeks. Three animals were euthanized in the sixth week and three in the thirteenth week. The spleen, lymph nodes, joint tissue, liver, lungs, kidneys and heart were obtained in order to assess the inflammatory infiltrate, the predominant cell populations and the expression of pro- and anti-inflammatory cytokines.
Established Arthritis Model. Arthritis was induced as in the previous model in 50 mice and the treatments were applied intramuscularly, after 2 weeks of the boost, every week for 6 weeks. Three animals were euthanized in the eighth week and three in the fifteenth week. The spleen, lymph nodes, joint tissue, liver, lungs, kidneys and heart were obtained in order to assess the inflammatory infiltrate, the predominant cell populations and the expression of pro- and anti-inflammatory cytokines.
Histological evaluation. The inflammatory infiltrate and tissue architecture were evaluated by H&E and Masson's trichrome staining and the content of proteoglycans, with the PAS technique. […]

For “collagen-polyvinylpyrrolidone [type I polymerized collagen]”, the “increase of IL-10 concentration in the supernatants” value (IL-10) was ≥ 10 times, the “gene expression of Foxp3” value (Foxp3; co-cultures from patients with OA) was “positive regulation” and the “transcription of FOXP3 gene” value (Foxp3; co-cultures from patients with RA) was “positively”. The “response of dormant cells” value (dormant cells) was “does not induce any response” and the “histopathology of joint tissue (inflammation, tissue architecture)” value (mice with CIA) was “decreased the degree of inflammation and preserved the joint structure; also recorded: maintained a tissue architecture similar to normal”.
